Patent publication US20250382298A1, “NITROGEN-CONTAINING COMPOUND AND USE THEREOF” (SUZHOU GENHOUSE BIO CO., LTD., priority 2022, published 2025)

Legend:
OVCAR3 cells = assay: Detection of cell proliferation activity by CCK8 method (OVCAR3); assay type: cell-based; details: Homo sapiens, OVCAR-3, CCK8, 96 h
From the text: (§1) This assay can be used to examine the potency of compounds in inhibiting the proliferation of tumor cells (OVCAR3, HT-29, BT-549, HCT-116). A lower IC50 value indicates high potency of the compound as a KIF18A inhibitor in the following assay setup,
(§2) McCoy's 5A medium purchased from Sangon Biotech; CCK8 kit purchased from Beyotime; OVCAR3, HT-29, HCT-116, and BT-549 cells purchased from Shanghai Fuheng Biotechnology Co., Ltd.; multimode microplate reader (Thermo).
(§3) Cells at the logarithmic growth phase were taken, digested with a cell lysis buffer (trypsin), centrifuged, counted, and seeded into a 96-well plate at an appropriate cell density (BT549: 1500 cells/well in 1640 medium. HT-29 and HCT-116: 2000 cells/well in McCoy's 5A medium), with 180 μL per well, for a total of 60 wells. The surrounding wells were filled with an equal amount of PBS to prevent water evaporation from the edge wells. The next day after cell plating, the test compounds at different concentration gradients (with an initial final concentration of 10 μM, diluted in a 1:5 gradient to obtain 9 concentration gradients) were added to the wells. Three replicate wells were set up for each concentration point, and a corresponding DMSO negative control group was also set up. Detection: After 96 h of drug treatment, the test cell culture plate was removed from the incubator. All the liquid in the 96-well plate was aspirated, and 100 μL of medium containing 10% CCK8 solution was added to each well. The plate was then incubated at 37° C. for 2 h (the OD450 of the DMSO group reached 1.5 or more), and the absorbance at 450 nm was measured using a microplate reader
(§4) After the background value was subtracted from the measurement for each well, the inhibition rate was calculated. Inhibition Rate (%)=(1−Sample/Vehicle)×100. Sample is the luminescence value of the drug treatment group, and Vehicle is the luminescence value of the DMSO control group. A sigmoidal dose-survival rate curve was plotted using a non-linear regression model in the GraphPad Prism 7.0 software, and the IC50 values were calculated.

HT-29 cells [1] = assay: Detection of cell proliferation activity by CCK8 method (HT-29); assay type: cell-based, human; details: Homo sapiens, CCK8, 96 h
From the text: as §1, §2, §3, §4

BT-549 cells = assay: Detection of cell proliferation activity by CCK8 method (BT-549); assay type: cell-based; details: Homo sapiens, CCK8, 96 h
From the text: as §1, §2, §3, §4

HCT-116 cells [2] = assay: Detection of cell proliferation activity by CCK8 method (HCT-116); assay type: cell-based; details: Homo sapiens, CCK8, 96 h
From the text: as §1, §2, §3, §4

HT-29 cells [3] = assay: Mitotic index analysis, pH3 expression in HT-29 cells; assay type: cell-based, human; details: Homo sapiens, 24 h treatment
Method: (§5) HCT-116 and HT-29 cells at the logarithmic growth phase were taken, digested with a cell lysis buffer (trypsin), centrifuged, counted, and seeded into a 96-well plate at an appropriate cell density (20000 cells/well), with 100 μL per well. The surrounding wells were filled with an appropriate amount of PBS to prevent water evaporation. The next day, the cells were treated with the compounds at different concentrations (with a starting concentration of 10 μM, 3-fold diluted to obtain 9 concentration gradients). After 24 h, the medium was aspirated, and the cells were washed twice with 100 μL of PBS. The cells were then fixed with 4% paraformaldehyde and incubated at room temperature for 15 min. The fixative solution was discarded, and the cells were washed with PBS. Then, 150 μL of specialized blocking solution (containing 1% Triton-100) was added to each well for blocking at room temperature for 2 h, and the plate was washed with PBS to remove excess blocking solution. Anti-phistone H3 (pH3) was diluted at a ratio of 1:1000 with a blocking solution containing 0.033% Triton-100, and a blank control group was set up. Then, incubation was performed at 4° C. overnight. The next day, the plate was washed twice with 1×PBST. Anti-rabbit-IgG (H+L) (CST) and DRAQ5 (Thermofisher) were each diluted at an appropriate ratio with a blocking solution containing 0.033% Triton-100 (secondary antibody: 1:2000; DRAQ5: 1:10000). Then, incubation was performed at room temperature for 2 h. The plate was washed twice with 1×PBST and once with PBS. Fluorescence signals at 700 nm and 800 nm were detected using a Li—COR Odyssey two-color near-infrared laser imager. Calculation was performed as follows: pH3 expression (%)=(Cmpd dose/DMSO control)×100. Cmpd dose is the value of the drug treatment group, and DMSO control is the value of the DMSO control group. The EC50 values were determined by fitting using the GraphPad Prism 7.0 software.

HCT-116 cells [4] = assay: Mitotic index analysis, pH3 expression in HCT-116 cells; assay type: cell-based; details: Homo sapiens, 24 h treatment
Method: as §5

SMILES	IC50 (OVCAR3 cells) [nM]	IC50 (HT-29 cells [1]) [nM]	IC50 (BT-549 cells) [nM]	IC50 (HCT-116 cells [2]) [nM]	EC50 (HT-29 cells [3]) [nM]	EC50 (HCT-116 cells [4]) [nM]
O=C(Nc1cn2ncnc2c(N2CCC(F)(F)CC2)n1)c1ccc(NS(=O)(=O)CCO)cc1N1CC2CCC(C2)C1 [Compound 54]	11.7	26.7	54.7	> 10000	10.8	> 10000
CS(=O)(=O)Nc1ccc(C(=O)Nc2cc3nn[nH]c3c(N3CCC(F)(F)CC3)n2)c(N2CC3CCC(C3)C2)c1 [Compound 66]	18.6	71.5	90.1	> 10000	34.5	> 10000
O=C(Nc1cc2cn[nH]c2c(N2CCC(F)(F)CC2)n1)c1ccc(NS(=O)(=O)CCO)cc1N1CC2CCC(C2)C1 [Compound 71]	5	17.4	39.7	> 10000	7.8	> 10000
CS(=O)(=O)Nc1ccc(C(=O)Nc2cn3cnnc3c(N3CCC(F)(F)CC3)n2)c(N2CCC3(CC2)CC3)c1 [Compound 61]	23.2	59.6	30.9	> 10000	52.6	> 10000
O=C(Nc1cn2c(C(F)(F)F)cnc2c(N2CCC(F)(F)CC2)n1)c1ccc(NS(=O)(=O)CCO)cc1N1CCC2(CC1)CC2 [Compound 35]	1850			> 10000		> 10000
CC1(C)C2CN(c3cc(NS(=O)(=O)CCO)ccc3C(=O)Nc3cn4ccnc4c(N4CCC(F)(F)CC4)n3)CC21 (stereo not drawn) [Compound 20]	117	518	736	> 10000	434	> 10000
CS(=O)(=O)Nc1ccc(C(=O)Nc2cn3c(F)cnc3c(N3CCC(F)(F)CC3)n2)c(N2CCC3(CC2)CC3)c1 [Compound 46]	34.8	55.6	75.8	> 10000	53	> 10000
Cn1ncc2cc(NC(=O)c3ccc(NS(C)(=O)=O)cc3N3CCC4(CC3)CC4)nc(N3CCC(F)(F)CC3)c21 [Compound 48]	12.2	17.1	26.3	> 10000	12.2	> 10000
O=C(Nc1cc2nn[nH]c2c(N2CCC(F)(F)CC2)n1)c1ccc(NS(=O)(=O)CCO)cc1N1CC2CCC(C2)C1 [Compound 67]	13.9	88.1	61.8	> 10000	36.1	> 10000
CS(=O)(=O)c1ccc(C(=O)Nc2cn3ccnc3c(N3CCC(F)(F)CC3)n2)c(N2CCC3(CC2)CC3)c1 [Compound 74]	47.9	82.4	156			
O=S(=O)(CCO)Nc1cc(N2CCC3(CC2)CC3)c2c(Nc3cn4ccnc4c(N4CCC(F)(F)CC4)n3)ncnc2c1 [Compound 43]	23.4	94.6	65.2	> 10000	30	> 10000
O=C(Nc1cc2cc[nH]c2c(N2CCC(F)(F)CC2)n1)c1ccc(NS(=O)(=O)CCO)cc1N1CC2CCC(C2)C1 [Compound 62]	6	15.1	23.1	> 10000	7.7	> 10000
O=C(Nc1cn2cncc2c(N2CCC(F)(F)CC2)n1)c1ccc(NS(=O)(=O)CCO)cc1N1CC2CCC(C2)C1 [Compound 59]	27.5	81.6	83	> 10000	49.1	> 10000
O=C(Nc1cc2nccnc2c(N2CCC(F)(F)CC2)n1)c1ccc(NS(=O)(=O)CCO)cc1N1CCC2(CC1)CC2 [Compound 39]	10.1	28.1	26.6	> 10000		> 10000
CS(=O)(=O)Nc1ccc(C(=O)Nc2cc3ccsc3c(N3CCC(F)(F)CC3)n2)c(N2CCC3(CC2)CC3)c1 [Compound 45]	54.3	94	170	> 10000	80.8	> 10000
CS(=O)(=O)Nc1ccc(C(=O)Nc2cc3nn[nH]c3c(N3CCC(F)(F)CC3)n2)c(N2CCC3(CC2)CC3)c1 [Compound 68]	43.4	157	90.9	> 10000	90.1	> 10000
O=C(Nc1cc2ccsc2c(N2CCC(F)(F)CC2)n1)c1ccc(NS(=O)(=O)CCO)cc1N1CC2CCC(C2)C1 [Compound 50]	51.9	55.5	175	> 10000	31.5	> 10000
CS(=O)(=O)Nc1ccc(C(=O)Nc2cn3cncc3c(N3CCC(F)(F)CC3)n2)c(N2CC3CCC(C3)C2)c1 [Compound 60]	63.2	144	240	> 10000	124	> 10000
O=C(Nc1cn2cnnc2c(N2CCC(F)(F)CC2)n1)c1ccc(NS(=O)(=O)CCO)cc1N1CC2CCC(C2)C1 [Compound 64]	10.2	55.2	42.4	> 10000	26.8	> 10000
Cc1cnc2c(N3CCC(F)(F)CC3)nc(NC(=O)c3ccc(NS(=O)(=O)CCO)cc3N3CCC4(CC3)CC4)cn12 [Compound 42]	83.2	229	304	> 10000	255	> 10000
O=C(Nc1cn2cc(C(F)(F)F)nc2c(N2CCC(F)(F)CC2)n1)c1ccc(NS(=O)(=O)CCO)cc1N1CCC2(CC1)CC2 [Compound 36]	283	520	1600	> 10000		> 10000
CS(=O)(=O)Nc1ccc(C(=O)Nc2cc3cc[nH]c3c(N3CCC(F)(F)CC3)n2)c(N2CC3CCC(C3)C2)c1 [Compound 63]	10.1	15.6	33.7	> 10000	10.3	> 10000
Cc1cc(NC(=O)c2ccc(NS(=O)(=O)CCO)cc2N2Cc3ccccc3C2)nc(N2CCC(F)(F)CC2)n1 [Compound 44]	733	1640	1900	> 10000		> 10000
CS(=O)(=O)Nc1ccc(C(=O)Nc2cn3cncc3c(N3CCC(F)(F)CC3)n2)c(N2CCC3(CC2)CC3)c1 [Compound 58]	37.9	97.1	90.4	> 10000	119	> 10000
